Test results: patent EP0001174A1, “A peptide and the salts thereof, processes for their preparation and compositions containing them” (NYEGAARD & CO. A/S, priority 1977, dated 1979)
Non-standard residues stand in square brackets, D forms with d. Residues, ends and D or L forms follow the SMILES beside them. pGlu = O=C1CC[C@@H](C(=O)O)N1

Test: biological activity of the synthetic peptide compared with the biogenic material isolated from urine (test not described; anorexigenic properties stated)
Conditions: no method or figures given

## O=C(O)CNC(=O)[C@H](Cc1cnc[nH]1)NC(=O)[C@@H]1CCC(=O)N1 [synthetic peptide, L-(pyro)glutamyl-L-histidyl-glycine] ([pGlu]-His-Gly-OH)
  biological activity: comparable biological activity
